One may read the solubility as the dissolved amount per volume that the medium holds.

For series [1] the following is noted: cited from earlier work.
Series [2] is described as follows: critical micelle concentration / equilibrium surface tension measurements. It counts as physicochemical. To be noted: substances separately, 37° C.
Excerpt: Since the interfacial molecular areas can be determined from the slopes of equilibrium surface tensions measurements from FIG. A,B, just below the break points, they are easy to compare.
The nature of series [3]: contact angle measurements. It counts as physicochemical.
For series [4] the following is noted: in vivo; cited from earlier work.
The conditions of series [5]: 50 mg/day or 100 mg/day triamterene with 40 mg/day furosemide; cited from earlier work.
A short description of series [6]: solubilization and binding thermodynamics of furosemide in triamterene micelles. It counts as physicochemical.
Series [7] in a line: solubility of furosemide and triamterene. In kind it is physicochemical.
Series [8] can be described thus: solute permeability of ions on artificial membranes. The conditions noted are these: 0.30 mM.
The conditions of series [9]: 40 mg furosemide, normal volunteers; cited from earlier work.

SMILES strings stand for the structures. Several values for one entry are separate records, joined by “and”; a condition that tells them apart may be missing. Equal entries are not always repeated. Where two headings read alike, the source gives them in different places.

Take `Nc1nc(N)c2nc(-c3ccc(OS(=O)(=O)O)cc3)c(N)nc2n1` [hydroxy-triamterene-sulfuric acid ester]: the “plasma concentration relative to triamterene” value in series [1] (intravenous, simultaneous with furosemide) is reported as “about ten”. The “potassium loss caused by furosemide” value in [1] (simultaneous intravenous administration with furosemide) is reported as “can be impeded”.

As for `NS(=O)(=O)c1cc(C(=O)O)c(NCc2ccco2)cc1Cl` [furosemide], the “critical micelle concentration (CMC)” value in series [2] amounted to 83 µM. For the same compound, the contact angle was found to be 59 deg in series [3] and 108 deg in series [3] (complexing to stearate, phthalate, etc.).

Turning to `NS(=O)(=O)c1cc(C(=O)O)cc(N2CCCC2)c1Oc1ccccc1` [peritanide], in series [4], the “half life time t1/2” value was “about 1 h”.

Take `Nc1nc(N)c2nc(-c3ccccc3)c(N)nc2n1` [triamterene]: in [5], the natriuretic effect result is reported as “agument the natriuretic effect”. For the same compound, the “K(T) of triamterene micelle, times smaller than for a furosemide micelle” value in [6] is “roughly 15 times”. Moreover, the “limiting value of n (aggregation number of triamterene micelles)” value is 15 in [6] (pH 2.5) and 25 in series [6] (pH 7.9). In addition, the solubility is 0.0001184 mol/L in series [7] (37° C., molar equivalent); 0,11 mMol in [7] (37° C., molar equivalent in parentheses); 0.000118 mol/L in series [7] (molar, read-out: solubility); 0.03 mg/mL in series [7] (pH 5.5, read-out: solubility); 0.005 mg/mL in series [7] (pH 9-11.0). The “Solute permeability K (Cl)” value is 170,3 ± 10,0 mol·s^-1·N^-1 in series [8] (compartment A) and 90,5 ± 5,0 mol·s^-1·N^-1 in series [8] (compartment B). In addition, the “Solute permeability Na (Cl)” value in [8] (compartment A) is on record as 111,2 ± 12,0 mol·s^-1·N^-1; in [8] (compartment B), 207,4 ± 8,0 mol·s^-1·N^-1. Moreover, in [2], the “critical micelle concentration (CMC)” value was found to be 15 µM. For the same compound, the “half life time t1/2” value in [4] is reported as 3.0 h. For the same compound, the “triamterene molecules required to solubilize furosemide” value (controlled release form of furosemide at basic pH) is listed as 320-350 molecules. Under “molar basis”, the “triamterene molecules required to solubilize furosemide and furosemide in controlled release form” value was 298 molecules and 320 molecules and 324 molecules. Also, the “oral dose required to block the kaliuretic effect of furosemide” value in [9] was 50 mg and 100 mg. Further, the contact angle in series [3] turned out to be 100 deg.

Take `CCCCNc1cc(C(=O)O)cc(S(N)(=O)=O)c1Oc1ccccc1` [bumetanide]: in series [4], the “half life time t1/2” value is listed as “about 1 h”.

(Values after patent US4834982A, “Potassium-neutral salureticum with anti-hypertensive effect” (priority 1987, dated 1989).)
